For series [1] the following is noted: cited from earlier work.
A further series has as its system neutrophil recruitment. The note with it: cited from earlier work.
For series [2] the following is noted: in vivo; cited from earlier work.
The next series has as its target T1, CXCR2 (Homo sapiens, UniProt P25025).
T1 sequence (P25025 1-360): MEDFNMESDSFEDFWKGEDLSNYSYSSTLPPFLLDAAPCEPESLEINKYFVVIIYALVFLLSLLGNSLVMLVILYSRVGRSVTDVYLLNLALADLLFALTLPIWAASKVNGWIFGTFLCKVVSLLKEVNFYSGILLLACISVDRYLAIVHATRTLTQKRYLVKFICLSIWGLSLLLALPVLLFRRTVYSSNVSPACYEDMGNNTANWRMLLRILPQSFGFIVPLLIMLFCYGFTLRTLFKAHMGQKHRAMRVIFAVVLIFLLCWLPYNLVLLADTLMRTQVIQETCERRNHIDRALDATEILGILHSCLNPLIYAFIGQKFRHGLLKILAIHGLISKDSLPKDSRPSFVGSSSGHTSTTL
The following applies: relative to SB225002; cited from earlier work.

Series [3] deals with mice. In words: Mechanical hypersensitivity: von Frey filaments, 50% withdrawal threshold of hind paws. In kind it is in vivo.
Series [4] relates to mice. Put plainly: Cold sensitivity, acetone drop on hind paw. The note with it: mice i.v. monoclonal ACPA D10 and B2; reparixin 30 mg/kg/day s.c. six days; day 19. Format: in vivo. On the procedure: To assess sensitivity to cold, the mice were placed in the same testing device as used for detection of mechanical hypersensitivity. After habituation, a 1 ml syringe was used to gently apply a drop of acetone to the plantar surface of the hind paw and the duration of the nocifensive behavior (lifting, shaking, biting, and licking the paw) was recorded. The test was repeated three times on each paw and the average was calculated.

Series [5] has as its system mice. Put plainly: Heat sensitivity, modified Hargreaves box. In kind it is in vivo. The note with it: mice i.v. monoclonal ACPA D10 and B2; reparixin 30 mg/kg/day s.c. six days; tested day 26. An excerpt:
Heat sensitivity was examined using a modified Hargreaves box ([…]. et al., 1997). Mice were placed individually in Plexiglas cubicles on the glass surface and allowed to habituate. A radiant heat stimulus was then applied from below to a hind paw until a motion sensor detects a brisk withdrawal and stops the stimulus. Elapsed time is automatically recorded with a cutoff at 20 seconds. Three measurements from each paw were averaged and presented as latency (in seconds) for the withdrawal.

For the next series, the system named is osteoclasts. Put plainly: Osteoclast activation under IL-8 receptor blockade. The note with it: blockade of IL-8 receptors.
Another series deals with ankle joints and tibia. Put plainly: Joint histology and micro-CT (synovitis, bone erosion, cartilage). Format: in vivo. The following applies: mice.
Series [6] relates to Cxcl1, Cxcl2 and other inflammatory factor mRNA. In words: Quantitative real-time PCR of ankle joint and plantar paw skin mRNA. Format: in vivo, mice. The note with it: hD10/B02 mAb 1 mg each; zoledronate 100 ug/kg. As to the method: Ankle joints and plantar paw skin of the hind legs were processed for gene expression analysis. Muscle and tendons were removed from ankle joints, which were then snap frozen and pulverized. Tissues were sonicated in TRIzol (Invitrogen) and RNA was extracted according to manufacturer's protocol. After complementary DNA (cDNA) synthesis, quantitative real-time PCR (Applied Biosystems) was performed using hydrolysis probes to determine the relative messenger RNA (mRNA) levels. Primers for chemokines Ccl2 (MCP1, Mm00441242_m1), Cxcl1 (Mm04207460_m1), Cxcl2 (Mm00436450_m1), Cxcl5 (Mm00436451_g1), inflammatory cytokines Tnf (Mm00443258_m1), Il1b (Mm00434228_m1), Il6 (Mm00446190_m1), mast cell proteases Mcpt4 (Mcp4, Mm00487636-g1), Tpsb2 (Mcp6, Mm01301240-g1), pro-inflammatory enzyme Cox2 (Mm00478374_m1), matrix metallo proteases Mmp2 (Mm00439498_m1), Mmp9 (Mm00442991_m1), Mmp13 (Mm00439491-m1), and reference gene Hprt1 (Mm01545399_m1) (all from Applied Biosystems) were used to determine threshold cycle values to calculate the number of cell equivalents in each sample with the standard curve method. Data was normalized to Hprt1 values and expressed as relative expression units (REU).
For orientation: Quantitative PCR measures a nucleic acid by following its amplification.

A further series relates to RA synovial fibroblasts. The following applies: cited from earlier work.
[7] abbreviates: mice injected with hG09 or hC03, thresholds at baseline, 1.5, 3 and 6 hours.

“Also recorded” adds a separate entry of the source.

For `C[C@H](CO)Nc1nc(SCc2cccc(F)c2F)nc2[nH]c(=O)sc12` [AZD-8309, 5-[[(2,3-Difluorophenyl)methyl]thio]-7-[[(1R)-2-hydroxy-1-methylethyl]amino]-thiazolo[4,5-d]pyrimidin-2(3H)-one], the “Tolerability in clinical trials” value in series [1] (human, in vivo) is reported as “well tolerated”.

Regarding `C[C@@H](C(N)=O)c1ccc(OS(=O)(=O)C(F)(F)F)cc1` [DF2162, 4-[(1R)-2-amino-1-methyl-2-oxoethyl]phenyl trifluoromethane sulfonate], in the series with neutrophil recruitment (mice), the “CXCL1 and carrageenan-induced pain-like behavior” value was “blocked”; the “Neutrophil recruitment induced by injection of CXCL1 or carrageenan to the paw” value is “inhibits neutrophil recruitment”. The Nociceptor sensitization entry in the series with neutrophil recruitment (mouse, in vivo) is listed as “does not directly affect nociceptor sensitization”. Further, the “Results in pre-clinical studies of adjuvant-induced polyarthritis and bleomycin-induced pulmonary inflammation and fibrosis” value in series [2] is reported as “promising results”.

For `O=C(Nc1ccc(Cl)c(S(=O)(=O)N2CCNCC2)c1O)Nc1cccc(F)c1Cl` [SB656933, 1-(2-chloro-3-fluorophenyl)-3-(4-chloro-2-hydroxy-3-piperazin-1-ylsulfonylphenyl)urea], the “Potency as CXCR2 antagonist” value at CXCR2 is given as “same potency as SB225002”. The “Tolerability in clinical trials” value in series [1] (human, in vivo) is recorded as “well tolerated at all doses”.

As to `CC[C@@H](Nc1c(Nc2cccc(C(=O)N(C)C)c2O)c(=O)c1=O)c1ccc(C)o1` [SCH527123, 2-hydroxy-N,N-dimethyl-3-[[2-[[1(R)-(5-methyl-2-furanyl)propyl]amino]-3,4-dioxo-1-cyclobuten-1-yl]amino]benzamide], the “Adverse events in clinical trials” value in [1] (human, in vivo) is given as “no treatment-induced adverse events were observed”. Further, in [1] (oral, clinical trials), the Severe asthma entry is “modest improvement” and the Sputum neutrophils result was “reduction in sputum neutrophils”.

With `O=C(O)Cc1ccccc1Nc1c(Cl)cccc1Cl` [diclofenac], the “Pain measured as withdrawal threshold, effect of painkiller” value (“Pain measured … of painkiller” below) in the series with mice [3] (mice injected with hC03 and hB09G09, diclofenac 30 mg/kg, observed during 6 hours) is recorded as “apparent lack of effect”.

With `NCC1(CC(=O)O)CCCCC1` [gabapentin], the “Pain measured … of painkiller” value with mice [3] (setting [7]) is on record as “apparent lack of effect; also recorded: no detectable effect on pain”.

For the compound `COc1ccc2cc([C@H](C)C(=O)O)ccc2c1` [naproxen], in the series with mice [3] (setting [7]), the “Pain measured … of painkiller” value is “apparent lack of effect; also recorded: no detectable effect on pain”.

For the compound `CC(C)Cc1ccc([C@@H](C)C(=O)NS(C)(=O)=O)cc1` [reparixin, (2R)-2-[4-(2-methylpropyl)phenyl]-N-methylsulfonylpropanamide], the “ACPA-induced sensitivity to cold, effect of treatment” value with mice [4] is reported as “attenuated sensitivity to cold”. The “ACPA-induced heat hypersensitivity, effect of treatment” value in the series with mice [5] is recorded as “partially reversed”. Moreover, in the series on osteoclasts, the Activation of osteoclasts result is recorded as “blocks the activation of osteoclasts”. Further, the “ACPA-induced mechanical hypersensitivity, effect of treatment” value in the series with mice [3] (mice i.v. monoclonal ACPA D10 and B2 (1 mg each), reparixin 30 mg/kg/day s.c. six consecutive days starting day 6, vs saline controls) is listed as “partially reversed”. Moreover, the “Tactile thresholds in naive mice” value in the series on mice [3] (naive mice not injected with ACPAs, treatment for six days) is reported as “did not affect tactile thresholds”. Moreover, in the series on mice [3] (pain induced by human monoclonal ACPA hC03 (hG09 control), reparixin 30 mg/kg once a day starting day 1), the “Pain measured as withdrawal threshold, effect of treatment” value is “attenuating effects”. The “Bone destruction induced by injected ACPA” value with ankle joints and tibia was “completely reversed”.

For the compound `O=P(O)(O)C(O)(Cn1ccnc1)P(=O)(O)O` [zoledronate], the “ACPA-induced increase of CXCL1 mRNA in the ankle joint” value in series [6] is “efficiently prevented”. Further, the “ACPA induced pain measured as withdrawal threshold, effect of osteoclast inhibitor” value in the series with mice [3] (hD10/hB02 mAb 1 mg each, zoledronate for 10 days) is on record as “dose-dependent effect; also recorded: dose dependent effect”.

As for epigallocatechin-3-gallate [EGCG], the “Induction of IL-8 production” value in the series on RA synovial fibroblasts is reported as “inhibited the induction of IL-8 production”.

Values taken from patent US10940126B2, “Inhibition of IL-8 in the treatment of pain and/or bone loss” (priority 2015, dated 2021).
